This is an account of results in patent US10188634B2, “3-(3H-imidazo[4,5-C]pyridin-2-yl)-1 H-pyrazolo[4,3-B]pyridines and therapeutic uses thereof” (Samumed, LLC, priority 2015, dated 2019).

In assay [1] the test system is primary human mesenchymal stem cells (hMSCs). The assay can be described thus: Induction of chondrogenesis in primary human mesenchymal stem cells (hMSCs), nodule imaging with Rhodamine B / Nile Red. Particulars: for Emax: hMSCs chondrogenesis, TGF-β3 (10 ng/mL) as positive control, read-out: Max. Activity as % TGF-β3 activity; for EC50: hMSCs, concentration required to induce 50% levels of chondrogenesis vs TGF-β3 positive control, read-out: Conc (nM) of 50% TGF-β3 activity. The format is cell-based. On the procedure: Representative compounds were screened using primary human mesenchymal stem cells (hMSCs) to determine their ability to induce chondrogenesis (process by which cartilage is developed).
Human Mesenchymal Stem Cell Culture: Primary human mesenchymal stem cells (hMSCs) were purchased from Lonza (Walkersville, Md.) and expanded in Mesenchymal Stem Cell Growth Media (Lonza). Cells between passage 3 and 6 were used for the experiments.
Compound Screening: Each compound was dissolved in DMSO as a 10 mM stock and used to prepare compound source plates. For the 96 well assay, serial dilution (1:3, 6-point dose-response curves from 2700 nM to 10 nM) and compound transfer was performed using the ECHO 550 (Labcyte, Sunnyvale, Calif.) into 96-well clear bottom assay plates (Greiner Bio-One) with appropriate DMSO backfill for a final DMSO concentration of 0.03%. hMSCs were plated at 20,000 cells/well in 250 μL/well Incomplete Chondrogenic Induction Medium (Lonza; DMEM, dexamethasone, ascorbate, insulin-transferrin-selenium [ITS supplement], gentamycin-amphotericin [GA-1000], sodium pyruvate, proline and L-glutamine). TGF-β3 (10 ng/mL) was used as a positive control for differentiation while negative control wells were treated with 75 nL DMSO for normalization and calculating EC50 values. For the 384 well assay, serial dilution (1:3, 8-point dose-response curves from 5000 nM to 2.2 nM) and compound transfer was performed using the ECHO 550 (Labcyte, Sunnyvale, Calif.) into 384-well clear bottom assay plates (Greiner Bio-One) with appropriate DMSO backfill for a final DMSO concentration of 0.03%. hMSCs were plated at 8,000 cells/well in 80 μL/well Incomplete Chondrogenic Induction Medium (Lonza; DMEM, dexamethasone, ascorbate, insulin-transferrin-selenium [ITS supplement], gentamycin-amphotericin [GA-1000], sodium pyruvate, proline and L-glutamine). TGF-β3 (10 ng/mL) was used as a positive control for differentiation while negative control wells were treated with 25 nL DMSO for normalization and calculating EC50 values. Cells were incubated at 37° C. and 5% CO2 for 6 days. To image chondrogenic nodules, the cells were fixed using 4% formaldehyde (Electron Microscopy Sciences), and stained with 2 μg/mL Rhodamine B (Sigma-Aldrich) and 20 μM Nile Red (Sigma-Aldrich) [Johnson K., et.al, A Stem Cell-Based Approach to Cartilage Repair, Science, (2012), 336(6082). 717-721]. The nodules imaged (25 images per well for 96 well plates and 9 images per well for 384 well plates at 10× magnification) by excitation at 531 nm and emission at 625 nm and quantified using the CellInsight CX5 (Thermo Scientific). Area of nodules in each well was normalized to the average of 3 DMSO treated wells on the same plate using Excel (Microsoft Inc.). The normalized averages (fold change over DMSO) of 2 or 3 replicate wells for each compound concentration were calculated. Due to solubility limitations of some of the compounds, curve fitting was incomplete leading to inaccurate EC50 determinations.
Using TGF-β3 as a positive control, the concentration of representative compounds required to induce 50% levels of chondrogenesis is reported. In addition, the maximum activity of each compound and the respective dose that each compound reached maximum chondrogenesis activity is reported.

Assay [2] relates to Wnt activity (Sp5-Luc reporter, human Sp5 promoter with eight TCF/LEF binding sites) in SW480 colon carcinoma cells. The assay can be described thus: Screening assay for Wnt activity: Sp5-Luc reporter gene assay in SW480 cells. Particulars: for inhibition at 10 µM: read-out: percent inhibition at 10 μM (given for EC50 of >10 μM); for EC50: 10-point dose-response starting from 10 μM, overnight incubation. The format is cell-based. The method in brief: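 Luminescence (BrightGlo) read after overnight 37 °C exposure of Sp5-Luc SW480 reporter cells, 4,000/well in 1% FBS, to compound dosed 1:3 over 10 points from 10 μM with 0.1% DMSO. Values normalized to DMSO-only cells, fitted with variable-slope four-parameter model; where EC50 exceeds 10 μM, % inhibition at 10 μM reported.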

Regarding `Fc1cccc(-c2cncc3[nH]c(-c4n[nH]c5ccc(C6=CCNCC6)nc45)nc23)c1` [Compound 478, 3-(7-(3-Fluorophenyl)-3H-imidazo[4,5-c]pyridin-2-yl)-5-(1,2,3,6-tetrahydropyridin-4-yl)-1H-pyrazolo[4,3-b]pyridine], in assay [1], the Emax stood at 53% and the EC50 came out at 7 nM. Moreover, in assay [2], the inhibition at 10 µM was 11% and the EC50 was greater than 10 µM.
In the case of `CN(C)CC(=O)Nc1cncc(-c2ccc3[nH]nc(-c4nc5c(-c6cccc(F)c6)cncc5[nH]4)c3n2)c1` [Compound 925, 2-(Dimethylamino)-N-(5-(3-(7-(3-fluorophenyl)-3H-imidazo[4,5-c]pyridin-2-yl)-1H-pyrazolo[4,3-b]pyridin-5-yl)pyridin-3-yl)acetamide], in assay [1], the Emax stood at 52% and the EC50 came to 21 nM. Further, in assay [2], the inhibition at 10 µM was determined as 23% and the EC50 is greater than 10 µM.
On the same counts, the results for `c1cncc(-c2ccc3[nH]nc(-c4nc5c(-c6cccnc6)cncc5[nH]4)c3n2)c1` [Compound 88, 5-(Pyridin-3-yl)-3-(7-(pyridin-3-yl)-3H-imidazo[4,5-c]pyridin-2-yl)-1H-pyrazolo[4,3-b]pyridine] are 84%, 30 nM, 28% and greater than 10 µM.
As for `Nc1cncc(-c2ccc3[nH]nc(-c4nc5c(-c6ccccc6F)cncc5[nH]4)c3n2)c1` [Compound 59, 5-(3-(7-(2-Fluorophenyl)-3H-imidazo[4,5-c]pyridin-2-yl)-1H-pyrazolo[4,3-b]pyridin-5-yl)pyridin-3-amine], in assay [1], the Emax turned out to be 98% and the EC50 was 10 nM. Moreover, in assay [2], the inhibition at 10 µM stood at 7% and the EC50 was greater than 10 µM.
`CCCCC(=O)Nc1cncc(-c2ccc3[nH]nc(-c4nc5c(-c6ccccn6)cncc5[nH]4)c3n2)c1` [Compound 159, N-(5-(3-(7-(Pyridin-2-yl)-3H-imidazo[4,5-c]pyridin-2-yl)-1H-pyrazolo[4,3-b]pyridin-5-yl)pyridin-3-yl)pentanamide]: in assay [1], the Emax turned out to be 86% and the EC50 amounted to 30 nM. For the same compound, in assay [2], the inhibition at 10 µM is 1% and the EC50 was greater than 10 µM.
On to `Cc1cn(-c2cncc3[nH]c(-c4n[nH]c5ccc(-c6cncc(CN7CCCC7)c6)nc45)nc23)cn1` [Compound 210, 3-(7-(4-Methyl-1H-imidazol-1-yl)-3H-imidazo[4,5-c]pyridin-2-yl)-5-(5-(pyrrolidin-1-ylmethyl)pyridin-3-yl)-1H-pyrazolo[4,3-b]pyridine], for which, in assay [1], the Emax turned out to be 65% and the EC50 stood at 2700 nM. In addition, in assay [2], the inhibition at 10 µM came to 3.5% and the EC50 was greater than 10 µM.
As for `COc1cccc(-c2cncc3[nH]c(-c4n[nH]c5ccc(-c6cncc(O)c6)nc45)nc23)c1` [Compound 985, 5-(3-(7-(3-Methoxylphenyl)-3H-imidazo[4,5-c]pyridin-2-yl)-1H-pyrazolo[4,3-b]pyridin-5-yl)pyridin-3-ol], in assay [2], the inhibition at 10 µM worked out at 7.8% and the EC50 is greater than 10 µM.
As to `O=C(Nc1cncc(-c2ccc3[nH]nc(-c4nc5c(-c6cccs6)cncc5[nH]4)c3n2)c1)C1CC1` [Compound 328, N-(5-(3-(7-(Thiophen-2-yl)-3H-imidazo[4,5-c]pyridin-2-yl)-1H-pyrazolo[4,3-b]pyridin-5-yl)pyridin-3-yl)cyclopropanecarboxamide], in assay [2], the inhibition at 10 µM is 3.7% and the EC50 is greater than 10 µM.
In the case of `CN(C)CCNc1cc(F)cc(-c2cncc3[nH]c(-c4n[nH]c5ccc(-c6cncc(OCCN7CCCC7)c6)nc45)nc23)c1` [Compound 742, N^1-(3-Fluoro-5-(2-(5-(5-(2-(pyrrolidin-1-yl)ethoxy)pyridin-3-yl)-1H-pyrazolo[4,3-b]pyridin-3-yl)-3H-imidazo[4,5-c]pyridin-7-yl)phenyl)-N^2,N^2-dimethylethane-1,2-diamine], in assay [2], the inhibition at 10 µM is 17.1% and the EC50 is greater than 10 µM.
Taken in the same sequence, the figures for `Cn1cc(-c2ccc3[nH]nc(-c4nc5c(-c6cc(F)cc(CNS(C)(=O)=O)c6)cncc5[nH]4)c3n2)cn1` [Compound 720, N-(3-Fluoro-5-(2-(5-(1-methyl-1H-pyrazol-4-yl)-1H-pyrazolo[4,3-b]pyridin-3-yl)-3H-imidazo[4,5-c]pyridin-7-yl)benzyl)methanesulfonamide] were 16.4% and greater than 10 µM.
Taken in the same sequence, the figures for `O=C(Nc1cncc(-c2ccc3[nH]nc(-c4nc5c(-c6ccncc6)cncc5[nH]4)c3n2)c1)C1CCCCC1` [Compound 135, N-(5-(3-(7-(pyridin-4-yl)-3H-imidazo[4,5-c]pyridin-2-yl)-1H-pyrazolo[4,3-b]pyridin-5-yl)pyridin-3-yl)cyclohexanecarboxamide] were 1.2% and greater than 10 µM.
In the case of `O=C(Nc1cncc(-c2ccc3[nH]nc(-c4nc5c(-c6ccccn6)cncc5[nH]4)c3n2)c1)c1ccccc1` [Compound 151, N-(5-(3-(7-(Pyridin-2-yl)-3H-imidazo[4,5-c]pyridin-2-yl)-1H-pyrazolo[4,3-b]pyridin-5-yl)pyridin-3-yl)benzamide], in assay [2], the inhibition at 10 µM came out at 23.9% and the EC50 is greater than 10 µM.
For the compound `Cn1cc(-c2ccc3[nH]nc(-c4nc5c(-c6ccc(F)cc6)cncc5[nH]4)c3n2)c(CO)n1` [Compound 1084, (4-(3-(7-(4-Fluorophenyl)-3H-imidazo[4,5-c]pyridin-2-yl)-1H-pyrazolo[4,3-b]pyridin-5-yl)-1-methyl-1H-pyrazol-3-yl)methanol], in assay [2], the inhibition at 10 µM came to 11.8% and the EC50 was greater than 10 µM.
In the case of `C1=C(c2ccc3[nH]nc(-c4nc5c(-c6ccc7c(c6)OCO7)cncc5[nH]4)c3n2)CCNC1` [Compound 1064, 3-(7-(Benzo[d][1,3]dioxol-5-yl)-3H-imidazo[4,5-c]pyridin-2-yl)-5-(1,2,3,6-tetrahydropyridin-4-yl)-1H-pyrazolo[4,3-b]pyridine], in assay [2], the inhibition at 10 µM was 9.5% and the EC50 was greater than 10 µM.
For `Cc1ccc(-c2cncc3[nH]c(-c4n[nH]c5ccc(C6=CCNCC6)nc45)nc23)s1` [Compound 686, 3-(7-(5-Methylthiophen-2-yl)-3H-imidazo[4,5-c]pyridin-2-yl)-5-(1,2,3,6-tetrahydropyridin-4-yl)-1H-pyrazolo[4,3-b]pyridine], in assay [2], the inhibition at 10 µM is 52.6% and the EC50 is greater than 10 µM.
As for `COc1cccc(-c2cncc3[nH]c(-c4n[nH]c5ccc(-c6cncc(OC7CCNCC7)c6)nc45)nc23)c1` [Compound 980, 3-(7-(3-Methoxylphenyl)-3H-imidazo[4,5-c]pyridin-2-yl)-5-(5-(piperidin-4-yloxy)pyridin-3-yl)-1H-pyrazolo[4,3-b]pyridine], in assay [2], the inhibition at 10 µM is 25.8% and the EC50 is greater than 10 µM.
Regarding `Oc1cncc(-c2ccc3[nH]nc(-c4nc5c(-c6cccnc6)cncc5[nH]4)c3n2)c1` [Compound 537, 5-(3-(7-(Pyridin-3-yl)-3H-imidazo[4,5-c]pyridin-2-yl)-1H-pyrazolo[4,3-b]pyridin-5-yl)pyridin-3-ol], in assay [2], the inhibition at 10 µM stood at 9.9% and the EC50 is greater than 10 µM.
Regarding `Cc1ccc(-c2cncc3[nH]c(-c4n[nH]c5ccc(-c6cncc(NC(=O)C7CCCC7)c6)nc45)nc23)s1` [Compound 386, N-(5-(3-(7-(5-Methylthiophen-2-yl)-3H-imidazo[4,5-c]pyridin-2-yl)-1H-pyrazolo[4,3-b]pyridin-5-yl)pyridin-3-yl)cyclopentanecarboxamide], in assay [2], the inhibition at 10 µM is 8.7% and the EC50 is greater than 10 µM.
